# Measured values published in US20110028566A1, “COMPOSITIONS AND PRODUCTS CONTAINING CYCLOALIPHATIC DIOL ANTIMICROBIAL AGENTS AND METHODS OF USING THE COMPOSITIONS AND PRODUCTS” (EASTMAN CHEMICAL COMPANY, priority 2009, published 2011).
# Experiments:
# Type in all cases: cell-based
# Trichophyton rubrum = assay: Challenge testing with pathogenic fungi in SDB; settings: w/v % in label, INT respiratory dye; for Grade code, Pathogenic Fungi, T. ruburm, 3 Days: 3 days incubation; for Grade code, Pathogenic Fungi, T. ruburm, 14 Days: 14 days incubation; for Grade code, Pathogenic Fungi, T. ruburm, 30 Days: 30 days incubation
# Protocol: (§1) Both M. canis and Trichophyton rubrum were grown on Sabouraud dextrose broth (SDB) (pH 5.6), while Malassezia fufur was grown in SDB supplemented with 2% (v/v) of olive oil and 0.2% (v/v) of Tween™ 80; incubation was at 22° C.±2° C. under continuous agitation by stirring for 10 days. The organisms were grown to a cell concentration of between 10^3 and 10^4 cfu/mL. The actual inoculation cell concentration of these challenges was determined by diluting in sterile buffer water and (spread-plate method) plating for enumeration.
# (§2) Challenge organisms were used to inoculate tubes containing each test material (CHDM, etc) or combination of test materials, at concentrations given in Table 5, in SDB (or for M. furfur, in SDB supplemented with olive oil and Tween™ 80). The inoculations were in the amount of 1.5 mL aliquots of each culture with static incubation at 22±2° C. Subcultures were made after 3-, 14-, and 30-days incubation. All challenges were conducted in triplicate. In the case of M. canis, the growth response was assessed by the visual presence or absence of growth in the tubes; in the case of T. rubrum, a respiratory dye (0.2% w/v aqueous INT solution: 2-(4-iodophenyl)-3-(4-nitrophenyl)-5-phenyl tetrazolium chloride) was added to the tubes, turning red if the organism was viable; and, finally, in the case of M. furfur, the growth response was assessed based upon visible pellicle formation in the tubes at the meniscus. The fungal growth in each tube was assigned a grade code as follows:
# (§3) 0: No visible growth 1: Some growth in tube 2: Moderate growth in tube 3: Good growth in tube 4: Extreme growth in tube
# (§4) All test material concentrations are given as w/v %. The grade codes given are the average of the grade codes for duplicate or triplicate samples.
# (§5) Table 5 compares the antimicrobial activity of 1,4-CHDM (AB) alone to 1,4-CHDM in combination with EDTA, phenoxyethanol (PE), and caprylyl glycol (CG). CHDM at 0.5% was tested with EDTA, and at 1.25 and 2.5% with EDTA, PE, and CG. (Note that the combination of CHDM with only EDTA was not tested against pathogenic fungi.) Results are also given for EDTA, PE, and CG alone, so the result for each mixture can be compared to the antimicrobial activity for each of its components individually. […] Possible synergies were determined by treating the grade code as an estimate of the log of the microbial count (log of cfu/mL). Log reductions can then be estimated by subtracting each grade code from the grade code for broth alone (grade code 5, except for the pathogenic fungi).
# Microsporum canis = assay: Challenge testing with pathogenic fungi in SDB; settings: w/v % in label, visual growth in tubes; for Grade code, Pathogenic Fungi, M. canis, 14 Days: 14 days incubation; for Grade code, Pathogenic Fungi, M. canis, 30 Days: 30 days incubation
# Protocol: as §1, §2, §3, §4, §5
# Malassezia furfur = assay: Challenge testing with pathogenic fungi in SDB; settings: SDB with olive oil and Tween 80, w/v % in label, pellicle formation; for Grade code, Pathogenic Fungi, M. furfur, 14 Days: 14 days incubation; for Grade code, Pathogenic Fungi, M. furfur, 30 Days: 30 days incubation
# Protocol: as §1, §2, §3, §4, §5
# Aspergillus niger = assay: Microbial challenge testing in BPW; settings: for Grade code, A. niger, 3 Day / Grade code, A. niger, 13 Day / Grade code, A. niger, 30 Day: BPW, w/v % in label, average of replicates
# Protocol: The microorganisms used in challenge tests are given in Table 3, designated as either ATCC (American Type Culture Collection) or wild type. These wild type organisms were problematic organisms previously isolated from chemical products. In the description for each organism, the bacteria are indicated as either GN (Gram negative) or GP (Gram positive).
# All of the microorganisms were grown in Tryptose Soy Broth (TSB), DIFCO™ available from Becton, Dickinson and Company, containing 1% dextrose. Aspergillus niger and Candida albicans were incubated at 22° C.±2° C. for at least 96 hours. All bacteria were incubated at 35° C.±2° C. in a humidified incubator for at least 96 hours.
# Aspergillus niger and Candida albicans were also grown on Sabouraud dextrose agar (SDA) at 22° C.±2° C. for 7 to 14 days or until full sporulation was achieved.
# The following procedure was followed to determine the amount of each challenge material (inoculum broth) required to produce a 10^8 cfu/mL challenge, which is equivalent to a final test-sample microbial concentration of 10^5 to 10^6 cfu (colony-forming units)/mL.
# Using a sterile serological pipette, 1 mL of the growth from each TSB culture was transferred into tubes containing 9 mL phosphate buffer (pH 7.2) and mixed thoroughly. This process was repeated to make serial 1:10 dilutions. Then 0.1 mL of each sample and dilution was inoculated onto agar plates to produce the equivalent of a further 1:10 dilution. C. albicans and A. niger were inoculated onto SDA and bacteria were inoculated onto Plate Count Agar (PCA), DIFCO™ available from Becton, Dickinson and Company. The 0.1 mL aliquots were evenly distributed on the plates using the spread-plate technique. The spread-plate technique is performed by spreading the aliquot over the entire plate surface using a sterile spreading rod while rotating the plate with a rotary auto-plater. After the inoculum was absorbed completely, each plate was inverted and incubated (fungi at 22° C.±2° C. and bacteria at 35° C.±2° C.).
# After incubation for at least 48 hours, colonies that had developed on the agar plates were counted and recorded with the corresponding dilution. If counting had to be delayed temporarily, plates were refrigerated, preferably no more than 24 hours, until they could be counted. The number of cfu/mL was determined by multiplying the count by the dilution factor for that particular plate.
# Turbidity in Nepholemetric Turbidity Units (NTU) was measured for each serial dilution using the HF-Micro 100 Model Turbidimeter. For each microorganism, the plate counts were compared to the turbidity readings.
# Aspergillus niger cultures were harvested and spores dislodged from the SDA on which they were grown by rubbing the growth gently with a sterile inoculating loop. The spores were then mixed into the broth culture that had been incubated with a sterile magnetic stir bar to reduce pellicle formation. The spore-culture mixture was filtered repeatedly through sterile, non-absorbent cotton and harvested repeatedly, adjusting vegetative cells and spores to a level of 1.0×10^8. A hemocytometer was used to verify the final challenge concentration.
# Control substrates (“broth alone”) were prepared for each microorganism separately in triplicate by adding 13.5 mL of BPW (pH 7.0) containing 1% (w/v) dextrose to each 20-mL glass tube; then adding 1.5 mL challenge material to produce a final concentration at time zero of 10^5 to 10^6 cfu/mL and a total volume of 15 mL.
# Test sample substrates were prepared containing each test material (1,4-CHDM, etc) or combination of test materials at the concentrations shown in Tables 5 and 6.
smiles,measurement,setting,value
"OCC1CCC(CO)CC1 (centres unmarked) [1,4-CHDM, 1,4-cyclohexanedimethanol]","Grade code, Pathogenic Fungi, T. ruburm, 3 Days",Trichophyton rubrum; listed as 0.5% AB,1
same,"Grade code, Pathogenic Fungi, T. ruburm, 3 Days",Trichophyton rubrum; listed as 1.25% AB,0
same,"Grade code, Pathogenic Fungi, T. ruburm, 3 Days",Trichophyton rubrum; listed as 2.5% AB,0
same,"Grade code, Pathogenic Fungi, T. ruburm, 14 Days",Trichophyton rubrum; listed as 0.5% AB,1
same,"Grade code, Pathogenic Fungi, T. ruburm, 14 Days",Trichophyton rubrum; listed as 1.25% AB,0
same,"Grade code, Pathogenic Fungi, T. ruburm, 14 Days",Trichophyton rubrum; listed as 2.5% AB,0
same,"Grade code, Pathogenic Fungi, T. ruburm, 30 Days",Trichophyton rubrum; listed as 0.5% AB,1
same,"Grade code, Pathogenic Fungi, T. ruburm, 30 Days",Trichophyton rubrum; listed as 1.25% AB,0
same,"Grade code, Pathogenic Fungi, T. ruburm, 30 Days",Trichophyton rubrum; listed as 2.5% AB,0
same,"Grade code, Pathogenic Fungi, M. canis, 3 Days",Microsporum canis; 3 days incubation,2
same,"Grade code, Pathogenic Fungi, M. canis, 14 Days",Microsporum canis; listed as 0.5% AB,1
same,"Grade code, Pathogenic Fungi, M. canis, 14 Days",Microsporum canis; listed as 1.25% AB,1
same,"Grade code, Pathogenic Fungi, M. canis, 14 Days",Microsporum canis; listed as 2.5% AB,0
same,"Grade code, Pathogenic Fungi, M. canis, 30 Days",Microsporum canis; listed as 0.5% AB,1
same,"Grade code, Pathogenic Fungi, M. canis, 30 Days",Microsporum canis; listed as 1.25% AB,1
same,"Grade code, Pathogenic Fungi, M. canis, 30 Days",Microsporum canis; listed as 2.5% AB,0
same,"Grade code, Pathogenic Fungi, M. furfur, 3 Days",Malassezia furfur; 3 days incubation,0
same,"Grade code, Pathogenic Fungi, M. furfur, 14 Days",Malassezia furfur; listed as 0.5% AB,1
same,"Grade code, Pathogenic Fungi, M. furfur, 14 Days",Malassezia furfur; listed as 1.25% AB,0
same,"Grade code, Pathogenic Fungi, M. furfur, 14 Days",Malassezia furfur; listed as 2.5% AB,0
same,"Grade code, Pathogenic Fungi, M. furfur, 30 Days",Malassezia furfur; listed as 0.5% AB,2
same,"Grade code, Pathogenic Fungi, M. furfur, 30 Days",Malassezia furfur; listed as 1.25% AB,0
same,"Grade code, Pathogenic Fungi, M. furfur, 30 Days",Malassezia furfur; listed as 2.5% AB,0
same,Grade code A. niger,"Aspergillus niger; 0.5%, 3 days incubation",4
same,Grade code A. niger,"Aspergillus niger; 0.5%, 13 days incubation",4
same,Grade code A. niger,"Aspergillus niger; 0.5%, 30 days incubation",4
same,Grade code A. niger,"Aspergillus niger; 1.25%, 3 days incubation",4
same,Grade code A. niger,"Aspergillus niger; 1.25%, 13 days incubation",4
same,Grade code A. niger,"Aspergillus niger; 1.25%, 30 days incubation",4
same,Grade code A. niger,"Aspergillus niger; 2.5%, 3 days incubation",2 (Countable (11 to 100 colonies))
same,Grade code A. niger,"Aspergillus niger; 2.5%, 13 days incubation",1 (Countable (1 to 10 colonies))
same,Grade code A. niger,"Aspergillus niger; 2.5%, 30 days incubation",2.3
same,"Grade code, A. niger, 3 Day","Aspergillus niger; 3 days incubation, listed as 0.5% AB",4
same,"Grade code, A. niger, 3 Day","Aspergillus niger; 3 days incubation, listed as 1.25% AB",4
same,"Grade code, A. niger, 3 Day","Aspergillus niger; 3 days incubation, listed as 2.5% AB",2 (Countable (11 to 100 colonies))
same,"Grade code, A. niger, 13 Day","Aspergillus niger; 13 days incubation, listed as 0.5% AB",4
same,"Grade code, A. niger, 13 Day","Aspergillus niger; 13 days incubation, listed as 1.25% AB",4
same,"Grade code, A. niger, 13 Day","Aspergillus niger; 13 days incubation, listed as 2.5% AB",1 (Countable (1 to 10 colonies))
same,"Grade code, A. niger, 30 Day","Aspergillus niger; 30 days incubation, listed as 0.5% AB",4
same,"Grade code, A. niger, 30 Day","Aspergillus niger; 30 days incubation, listed as 1.25% AB",4
same,"Grade code, A. niger, 30 Day","Aspergillus niger; 30 days incubation, listed as 2.5% AB",2.3
"CC1(C)C(O)C(C)(C)C1O (centres unmarked) [TMCD, 2,2,4,4-tetramethyl-1,3-cyclobutanediol]",Grade code A. niger,"Aspergillus niger; 0.5%, 3 days incubation",5
same,Grade code A. niger,"Aspergillus niger; 0.5%, 13 days incubation",5
same,Grade code A. niger,"Aspergillus niger; 0.5%, 30 days incubation",5
same,Grade code A. niger,"Aspergillus niger; 1.25%, 3 days incubation",4
same,Grade code A. niger,"Aspergillus niger; 1.25%, 13 days incubation",4
same,Grade code A. niger,"Aspergillus niger; 1.25%, 30 days incubation",4
same,Grade code A. niger,"Aspergillus niger; 2.5%, 3 days incubation",3 (Individual colonies not countable; >75% of plate covered with growth)
same,Grade code A. niger,"Aspergillus niger; 2.5%, 13 days incubation",2 (Countable (11 to 100 colonies))
same,Grade code A. niger,"Aspergillus niger; 2.5%, 30 days incubation",3 (Individual colonies not countable; >75% of plate covered with growth)
